Results published in patent US9629815B2, “Benzoquinone derivatives for treating oxidative stress disorders” (Edison Pharmaceuticals, Inc., priority 2012, dated 2017).

How the values were obtained:
Assay type in all cases: cell-based
[1] = tested on: Human dermal fibroblasts from Friedreich's Ataxia patients; assay: Rescue of BSO-stressed FRDA fibroblasts (Calcein AM viability); details: FRDA fibroblasts GM04078, 1 mM BSO, 48 h, read-out: protection against FRDA, EC50
Description: Test samples and solvent controls were tested for their ability to rescue FRDA fibroblasts stressed by addition of L-buthionine-(S,R)-sulfoximine (BSO), as described in Jauslin et al., Hum. Mol. Genet. 11(24):3055 (2002), Jauslin et al., FASEB J. 17:1972-4 (2003), and International Patent Application WO 2004/003565. […] This specific BSO-mediated cell death can be prevented by administration of antioxidants or molecules involved in the antioxidant pathway, such as alpha-tocopherol, selenium, or small molecule glutathione peroxidase mimetics. However, antioxidants differ in their potency, i.e. the concentration at which they are able to rescue BSO-stressed FRDA fibroblasts.
MEM (a medium enriched in amino acids and vitamins, catalog no. 1-31F24-I) and Medium 199 (M199, catalog no. 1-21F22-I) with Earle's Balanced Salts, without phenol red, were purchased from Bioconcept. Fetal Calf Serum was obtained from PAA Laboratories. Basic fibroblast growth factor and epidermal growth factor were purchased from PeproTech. 2,3,5-trimethyl-6-(12-hydroxy-5,10-dodecadiynyl)-1,4-benzoquinone, penicillin-streptomycin-glutamine mix, L-buthionine (S,R)-sulfoximine, and insulin from bovine pancreas were purchased from Sigma. Calcein AM was purchased from Molecular Probes. […]

[2] = tested on: human dermal fibroblasts from Huntington's patients; assay: Rescue of fibroblasts from Huntington's patients from oxidative stress; details: Fibroblast, Huntington's cells GM 04281, screen similar to Example 1, read-out: protection against Huntington's, EC50
[3] = tested on: human dermal fibroblasts from LHON patients; assay: Rescue of fibroblasts from LHON patients from oxidative stress; details: Fibroblast, LHON cells GM03858, screen similar to Example 1, read-out: protection against LHON, EC50
[4] = tested on: human dermal fibroblasts from Parkinson's Disease patients; assay: Rescue of fibroblasts from Parkinson's Disease patients from oxidative stress; details: Fibroblast, PD cells AG20439, screen similar to Example 1, read-out: protection against Parkinson's Disease, EC50

## CC1=C(C)C(=O)C(CCCCC#CCCCC#CCO)=C(C)C1=O [2,3,5-trimethyl-6-(12-hydroxy-5,10-dodecadiynyl)-1,4-benzoquinone]
[1]
  EC50: < 100 nM
[2]
  EC50: < 50 nM
[3]
  EC50: < 100 nM
[4]
  EC50: < 100 nM
